The results in this text go back to patent US6451733B1, “Synergistic herbicidal methods and compositions” (BASF Aktiengesellschaft, priority 1999, dated 2002).

What all share (test): Field trial, post-emergence weed control
Common to all, as to assay type: in vivo

Test [1] concerns Stellaria media. The protocol:
(§1) In the following examples, synergism for two-way combinations is determined by the Colby^1 method, i.e. the expected (or predicted) response of the combination is calculated by taking the product of the observed response for each individual component of the combination when applied alone divided by 100 and subtracting this value from the sum of the observed response for each component when applied alone. Synergism of the combination is then determined by comparing the observed response of the combination to the expected (or predicted) response as calculated from the observed responses of each individual component alone. If the observed response of the combination is greater than the expected (or predicted) response then the combination is said to be synergistic and falls within the definition of synergistic effect as previously defined.
(§2) In similar manner for the case of three-way combination, C3; is composed of component X plus component Y plus […] and Obs. designates the observed response of the combination C3. [formula]
(§3) Grassy and broadleaved weeds are either seeded perpendicular to the direction of the crop or broadcast in early to mid-May. The crop is seeded after the weed seed. Row width is 18 cm. The seed is drilled in with a Roger's 1.8 m width drill to a depth of 5 cm.
(§4) All trials employ standard accepted weed science procedures. Applications are made with a Roger's CO2-powered shrouded sprayer. Test design is a modified randomized complete block design with four replications. All applications are made post-emergence to the weeds and crop.
(§5) The test solutions are prepared by tank-mixing sufficient quantities of aqueous solutions and/or dispersions of the test compounds.
(§6) The treated plots are examined at intervals during the growing season and rated for percent control of weeds and crop injury. The data listed is an average of the replicates for that treatment. The Colby method of analysis is used to determine the resultant biological effect of the combination treatment as compared to the biological effect of each component when applied alone.

The subject of test [2] is Sinapis arvensis. The protocol:
as §1, §2, §3, §4, §5, §6

The test system of test [3] is Salsola kali. The procedure: as §1, §2, §3, §4, §5, §6
The test system of test [4] is Polygonum convolvulus. The protocol:
as §1, §2, §3, §4, §5, §6

Test [5] relates to Brassica napus. The procedure:
as §1, §2, §3, §4, §5, §6

Test [6] relates to Kochia scoparia. The procedure:
as §1, §2, §3, §4, §5, §6

Test [7] has as its system Avena fatua. The protocol:
as §1, §2, §3, §4, §5, §6

Test [8] has as its system Vaccaria pyramaidata. The protocol:
as §1, §2, §3, §4, §5, §6

The subject of test [9] is Galeopsis tetrahit. The procedure:
as §1, §2, §3, §4, §5, §6

The test system of test [10] is Setaria viridis. The protocol:
as §1, §2, §3, §4, §5, §6

Test [11] deals with Chenopodium album. The protocol: as §1, §2, §3, §4, §5, §6
In test [12] the test system is Polygonum (smartweed) spp. The procedure: as §1, §2, §3, §4, §5, §6
Test [13] has as its system Galium aparine. The procedure: as §1, §2, §3, §4, §5, §6
Test [14] concerns Brassica napus (imidazolinone tolerant). The protocol: Synergism of the combination is then determined by comparing the observed response of the combination to the expected (or predicted) response as calculated from the observed responses of each individual component alone. If the observed response of the combination is greater than the expected (or predicted) response then the combination is said to be synergistic and falls within the definition of synergistic effect as previously defined.
as §2, §3, §4, §5, §6

Test [15] has as its system Amaranthus retroflexus. The protocol:
as §1, §3, §4, §5, §6

Consider `O=C(O)COc1ccc(Cl)cc1Cl` [2,4-D, 2,4-dichlorophenoxyacetic acid], for which the “Percent Control” value in test [1] (280 g/ha) is listed as 10%; in test [2] (280 g/ha), 92%; in test [3] (280 g/ha), 35%; in [4] (280 g/ha), 48%; in [5] (280 g/ha) it was 93%; in test [6] (280 g/ha) it was 52%. Besides, the “Percent Control” value in test [7] (280 g/ha) came out at 2%; in [8] (280 g/ha) it was 51%; in test [9] (280 g/ha), 2%; in test [10] (280 g/ha), 0%; in [11] (280 g/ha) it was 91%; in [12] (280 g/ha) it was 53%. Also, the “Percent Control” value was 43% in test [13] (280 g/ha) and 94% in test [14] (280 g/ha).
As to `CCOC(=O)[C@@H](C)Oc1ccc(Oc2nc3ccc(Cl)cc3o2)cc1` [fenoxaprop-p-ethyl], the “Percent Control” value was 0% in test [2] (72 g/ha); 0% in test [4] (72 g/ha); 0% in test [5] (72 g/ha); 0% in [8] (72 g/ha); 98% in test [10] (72 g/ha); 0% in test [11] (72 g/ha). Besides, the “Percent Control” value in test [15] (72 g/ha) worked out at 9%; in test [14] (72 g/ha) it was 0%.
As for `O=C(O)c1nc(Cl)ccc1Cl` [clopyralid], the “Percent Control” value in test [1] (150 g/ha) is reported as 10%; in test [2] (150 g/ha) it was 16%; in test [5] (150 g/ha), 12%; in test [11] (150 g/ha), 51%; in [13] (150 g/ha) it was 0%; in test [14] (150 g/ha) it was 8%.
Take `O=C(Nc1ccc(F)cc1)c1cccc(Oc2cccc(C(F)(F)F)c2)n1` [picolinafen]: the “Percent Control” value in test [1] (50 g/ha) was 64%; in test [2] (50 g/ha), 78%; in [3] (50 g/ha), 56%; in [4] (50 g/ha), 54%; in [5] (50 g/ha), 70%; in test [6] (50 g/ha), 59%. Also, the “Percent Control” value came out at 5% in [7] (50 g/ha); 63% in [8] (50 g/ha); 59% in test [9] (50 g/ha); 14% in [10] (50 g/ha); 57% in [11] (50 g/ha); 26% in test [12] (50 g/ha). For the same compound, the “Percent Control” value is 28% in test [13] (50 g/ha), 90% in test [15] (50 g/ha) and 65% in test [14] (50 g/ha).
For the compound `CCO/N=C(\CC)C1=C(O)CC(c2c(C)cc(C)cc2C)CC1=O` (centres unmarked) [tralkoxydim], the “Percent Control” value in [2] (200 g/ha) was determined as 0%; in test [4] (200 g/ha), 0%; in test [5] (200 g/ha) it was 0%; in test [7] (200 g/ha), 97%; in test [8] (200 g/ha) it was 0%; in test [11] (200 g/ha), 0%. In addition, the entries for the “Percent Control” value in test [15] (200 g/ha) and in test [14] (200 g/ha) were 1% and 0%, respectively.
Consider imazamethabenz methyl, for which the “Percent Control” value is reported as 8% in test [1] (400 g/ha); 9% in [3] (400 g/ha); 31% in [6] (400 g/ha); 88% in [7] (400 g/ha); 20% in test [8] (400 g/ha); 4% in test [9] (400 g/ha). In addition, the “Percent Control” value is reported as 10% in test [10] (400 g/ha); 18% in test [11] (400 g/ha); 76% in test [12] (400 g/ha); 48% in [13] (400 g/ha); 0% in test [14] (400 g/ha).
